Experimental data from ChEMBL document CHEMBL5543068, “Mitochondrial targeting derivatives of honokiol enhanced selective antitumor activity in NCI-H446 cells and decreased in vivo toxicity in Caenorhabditis elegans” (Eur J Med Chem, 2024).
Activity calls are given as the source filed them. The rule behind the calls is not given here.

Legend:
NCI-H446 [1] = assay: Induction of apoptosis in human NCI-H446 cells assessed as early apoptotic cells at 0.25 uM incubated for 24 hrs by Annexin V-FITC/PI staining based flow cytometric analysis (reference value: 0.37 %); format: functional
NCI-H446 [2] = assay: Induction of apoptosis in human NCI-H446 cells assessed as late apoptotic cells at 2 uM incubated for 24 hrs by Annexin V-FITC/PI staining based flow cytometric analysis (reference value: 1.71 %); format: functional
[3] = Drug uptake in human NCI-H446 cells assessed as green fluorescence at 2.5 uM incubated for 5 hrs by confocal microscopic analysis; format: ADME, cell-based; settings: nci-h446, 5 h
NCI-H446 [4] = assay: Induction of ROS production in human NCI-H446 cells assessed as increase in intracellular ROS level incubated for 24 hrs by DCFH-DA staining based flow cytometric analysis; format: functional, cell-based; settings: dose 0.25-2 µM
NCI-H446 [5] = assay: Antiproliferative activity against human NCI-H446 cells assessed as reduction in cell viability incubated for 24 to 72 hrs by MTT assay; format: functional, cell-based; settings: dose 0.5-8 µM, time 24-72 hrs
NCI-H446 [6] = assay: Induction of apoptosis in human NCI-H446 cells assessed as increase in cleaved caspase-3 level at 0.5 to 2 uM by Western blot analysis; format: functional, cell-based; settings: dose 0.5-2 µM
NCI-H446 [7] = assay: Cell cycle arrest in human NCI-H446 cells assessed as decrease in S phase cells at 0.25 to 2 uM incubated for 24 hrs by PI staining based flow cytometric analysis; format: functional; settings: dose 0.25-2 µM
NCI-H446 [8] = assay: Induction of apoptosis in human NCI-H446 cells assessed as decrease in caspase-3 level at 0.5 to 2 uM by Western blot analysis; format: functional, cell-based; settings: dose 0.5-2 µM
HepG2 = assay: Antiproliferative activity against human HepG2 cells assessed as reduction in cell viability incubated for 48 hrs by MTT assay; format: functional, cell-based; settings: HepG2, 48 h
NCI-H446 [9] = assay: Synergistic antiproliferative activity against human NCI-H446 cells assessed as reduction in cell viability incubated for 48 hrs in presence of cisplatin by MTT assay; format: functional, cell-based; settings: dose 0.5-8 µM
[10] = Cytotoxicity against human HL7702 cells assessed as reduction in cell viability incubated for 48 hrs by MTT assay; format: toxicity, cell-based; settings: HL7702 (L02) cells
NCI-H446 [11] = assay: Induction of apoptosis in human NCI-H446 cells assessed as necrotic cells at 0.25 uM incubated for 24 hrs by Annexin V-FITC/PI staining based flow cytometric analysis (reference value: 1.17 %); format: functional
[12] = Induction of apoptosis in HBE (human bronchial epithelial) cells assessed as change in nuclei morphology at 1 to 2 uM incubated for 24 hrs by DAPI staining based fluorescence inverted microscopic analysis; format: toxicity, cell-based; settings: dose 1-2 µM
[13] = Toxicity in Caenorhabditis elegans assessed as reduction in movement speed at 20 to 100 uM measured after 72 hrs by […] microscopic analysis; settings: dose 20-100 µM
NCI-H446 [14] = assay: Antiproliferative activity against human NCI-H446 cells assessed as reduction in cell viability incubated for 48 hrs by MTT assay; format: functional, cell-based; settings: for IC50: NCI-H446, 48 h
A549 = assay: Antiproliferative activity against human A549 cells assessed as reduction in cell viability incubated for 48 hrs by MTT assay; format: functional, cell-based; settings: A549, 48 h
[15] = Selectivity index, ratio of IC50 for cytotoxicity against HBE (human bronchial epithelial) cells to IC50 for antiproliferative activity against human NCI-H446 cells; format: toxicity, cell-based; settings: HBE (human bronchial epithelial) cells versus NCI-H446 cells, read-out: Ratio IC50
Cell membrane = assay: Induction of mitochondrial membrane potential loss in human NCI-H446 cells incubated for 24 hrs by JC-1 staining based flow cytometric analysis; format: cell membranes; settings: dose 0.25-2 µM
CDDP-resistant A549 cell [16] = assay: Antiproliferative activity against human CDDP-resistant A549 cells assessed as reduction in cell viability at 0.5 to 16 uM incubated for 48 hrs by MTT assay; format: functional, cell-based; settings: dose 0.5-16 µM
NCI-H446 [17] = assay: Induction of apoptosis in human NCI-H446 cells assessed as necrotic cells at 0.5 uM incubated for 24 hrs by Annexin V-FITC/PI staining based flow cytometric analysis (reference value: 1.17 %); format: functional
NCI-H446 [18] = assay: Induction of apoptosis in human NCI-H446 cells assessed as late apoptotic cells at 0.5 uM incubated for 24 hrs by Annexin V-FITC/PI staining based flow cytometric analysis (reference value: 1.71 %); format: functional
NCI-H446 [19] = assay: Induction of apoptosis in human NCI-H446 cells assessed as viable cells at 2 uM incubated for 24 hrs by Annexin V-FITC/PI staining based flow cytometric analysis (reference value: 96.8 %); format: functional; settings: read-out: Activity
NCI-H446 [20] = assay: Antiproliferative activity against human NCI-H446 cells assessed as reduction in cell viability at 0.5 to 8 uM by MTT assay; format: functional, cell-based; settings: dose 0.5-8 µM, time 24-72 hrs, TDE = time-dependent effect
NCI-H446 [21] = assay: Induction of apoptosis in human NCI-H446 cells assessed as viable cells at 0.5 uM incubated for 24 hrs by Annexin V-FITC/PI staining based flow cytometric analysis (reference value: 96.8 %); format: functional; settings: read-out: Activity
NCI-H446 [22] = assay: Induction of apoptosis in human NCI-H446 cells assessed as late apoptotic cells at 1 uM incubated for 24 hrs by Annexin V-FITC/PI staining based flow cytometric analysis (reference value: 1.71 %); format: functional
NCI-H446 [23] = assay: Induction of apoptosis in human NCI-H446 cells assessed as change in cellular nuclei morphology at 1 uM incubated for 24 hrs by DAPI staining based fluorescence inverted microscopic analysis; format: functional, cell-based
NCI-H446 [24] = assay: Cell cycle arrest in human NCI-H446 cells assessed as increase in subG1 phase cells at 0.25 to 2 uM incubated for 24 hrs by PI staining based flow cytometric analysis; format: functional; settings: dose 0.25-2 µM
NCI-H446 [25] = assay: Cell cycle arrest in human NCI-H446 cells assessed as G0/G1 phase cells incubated for 24 hrs by PI staining based flow cytometric analysis (reference value: 52.37%); format: functional
NCI-H446 [26] = assay: Induction of apoptosis in human NCI-H446 cells assessed as increase in cleaved caspase-9 level at 0.5 to 2 uM by Western blot analysis; format: functional, cell-based; settings: dose 0.5-2 µM
NCI-H446 [27] = assay: Induction of apoptosis in human NCI-H446 cells assessed as late apoptotic cells at 0.25 uM incubated for 24 hrs by Annexin V-FITC/PI staining based flow cytometric analysis (reference value: 1.71 %); format: functional
NCI-H446 [28] = assay: Induction of apoptosis in human NCI-H446 cells assessed as necrotic cells at 2 uM incubated for 24 hrs by Annexin V-FITC/PI staining based flow cytometric analysis (reference value: 1.17 %); format: functional
CDDP-resistant A549 cell [29] = assay: Sensitization of cisplatin-induced antiproliferative activity against human CDDP-resistant A549 cells assessed as inhibition of cell growth at 0.25 uM incubated for 48 hrs by MTT assay; format: functional, cell-based
NCI-H446 [30] = assay: Induction of apoptosis in human NCI-H446 cells assessed as early apoptotic cells at 0.5 uM incubated for 24 hrs by Annexin V-FITC/PI staining based flow cytometric analysis (reference value: 0.37 %); format: functional
NCI-H446 [31] = assay: Induction of apoptosis in human NCI-H446 cells assessed as early apoptotic cells at 1 uM incubated for 24 hrs by Annexin V-FITC/PI staining based flow cytometric analysis (reference value: 0.37 %); format: functional
NCI-H446 [32] = assay: Induction of apoptosis in human NCI-H446 cells assessed as early apoptotic cells at 2 uM incubated for 24 hrs by Annexin V-FITC/PI staining based flow cytometric analysis (reference value: 0.37 %); format: functional
NCI-H446 [33] = assay: Induction of apoptosis in human NCI-H446 cells assessed as necrotic cells at 1 uM incubated for 24 hrs by Annexin V-FITC/PI staining based flow cytometric analysis (reference value: 1.17 %); format: functional
NCI-H446 [34] = assay: Induction of apoptosis in human NCI-H446 cells assessed as decrease in caspase-9 level at 0.5 to 2 uM by Western blot analysis; format: functional, cell-based; settings: dose 0.5-2 µM
[35] = Drug localization in human NCI-H446 cell mitochondria at 2.5 uM incubated for 5 hrs by MitoTracker Red CMXRos dye based confocal microscopic analysis; format: ADME; settings: nci-h446, 5 h
[36] = Cytotoxicity against HBE (human bronchial epithelial) cells assessed as reduction in cell viability incubated for 48 hrs by MTT assay; format: toxicity, cell-based
NCI-H446 [37] = assay: Induction of apoptosis in human NCI-H446 cells assessed as decrease in PARP level at 0.5 to 2 uM by Western blot analysis; format: functional, cell-based; settings: dose 0.5-2 µM
[38] = Toxicity in Caenorhabditis elegans assessed as reduction in growth by measuring body length at 50 to 100 uM measured after 72 hrs by […] microscopic analysis; settings: dose 50-100 µM
NCI-H446 [39] = assay: Induction of apoptosis in human NCI-H446 cells assessed as viable cells at 0.25 uM incubated for 24 hrs by Annexin V-FITC/PI staining based flow cytometric analysis (reference value: 96.8 %); format: functional; settings: read-out: Activity
NCI-H446 [40] = assay: Induction of apoptosis in human NCI-H446 cells assessed as viable cells at 1 uM incubated for 24 hrs by Annexin V-FITC/PI staining based flow cytometric analysis (reference value: 96.8 %); format: functional; settings: read-out: Activity

SMILES: C=CCc1ccc(OCCC)c(-c2ccc(OCCC[n+]3ccc(/C=C/c4c[nH]c5ccccc45)cc3)c(CC=C)c2)c1.[Br-]
- Activity (NCI-H446 [1]): 39.9%
- Activity (NCI-H446 [2]): 95.4%
- Drug uptake [3]: Active
- Activity (NCI-H446 [4]): Dose-Dependent Effect
- Activity (NCI-H446 [5]): Dose-Dependent Effect
- Activity (NCI-H446 [6]): Active
- Activity (NCI-H446 [7]): Active
- Activity (NCI-H446 [8]): Active
- IC50 (HepG2): 2.48 µM
- Activity (NCI-H446 [9]): Dose-Dependent Effect
- IC50 at 48 h [10]: 2.62 µM
- Activity (NCI-H446 [11]): 0.14%
- Activity [12]: Non-Toxic
- Activity [13]: Non-Toxic
- Activity (NCI-H446 [14]): Dose-Dependent Effect
- IC50 (NCI-H446 [14]): 2.87 µM
- IC50 (A549): 4.6 µM
- selectivity ratio [15]: ~10
- Activity (Cell membrane): Dose-Dependent Effect
- Activity (CDDP-resistant A549 cell [16]): inactive
- Activity (NCI-H446 [17]): 0.08%
- Activity (NCI-H446 [18]): 88.1%
- viability at 2 µM (NCI-H446 [19]): 1.97%
- Activity (NCI-H446 [20]): Tde
- viability at 0.5 µM (NCI-H446 [21]): 1.75%
- Activity (NCI-H446 [22]): 95.4%
- Activity (NCI-H446 [23]): Active
- Activity (NCI-H446 [24]): Active
- Activity (NCI-H446 [25]): 68.31%
- Activity (NCI-H446 [26]): Active
- Activity (NCI-H446 [27]): 57.4%
- Activity (NCI-H446 [28]): 0.45%
- Activity (CDDP-resistant A549 cell [29]): Active
- Activity (NCI-H446 [30]): 10.1%
- Activity (NCI-H446 [31]): 2.12%
- Activity (NCI-H446 [32]): 2.19%
- Activity (NCI-H446 [33]): 0.13%
- Activity (NCI-H446 [34]): Active
- Drug uptake [35]: Active
- IC50 at 48 h [36]: 23.1 µM
- Activity (NCI-H446 [37]): Active
- Activity [38]: Non-Toxic
- viability at 0.25 µM (NCI-H446 [39]): 2.58%
- viability at 1 µM (NCI-H446 [40]): 1.32%

SMILES: C=CCc1ccc(OCCCCCC[n+]2ccc(/C=C/c3c[nH]c4ccccc34)cc2)c(-c2ccc(OCCC)c(CC=C)c2)c1
- IC50 (HepG2): 2.35 µM
- IC50 at 48 h [10]: 2.34 µM
- IC50 (NCI-H446 [14]): 3.28 µM
- IC50 (A549): 4.93 µM
- IC50 at 48 h [36]: 11.1 µM

SMILES: CCCCCCOC(=O)Cc1c2[n+](cc3c(OC)c(OC)ccc13)CCc1cc3c(cc1-2)OCO3
- IC50 (HepG2): > 10 µM
- IC50 at 48 h [10]: 19 µM
- IC50 (NCI-H446 [14]): 13 µM
- IC50 (A549): 6.11 µM
- IC50 at 48 h [36]: 10.6 µM
